Here are results for 1 substance from patent publication US9888679B2, “Protection of progenitor cells and regulation of their differentiation” (Proteobioactives Pty Ltd, priority 2007, dated 2018).

Test [1] has as its system murine Progenitor Cells (C3H10T1/2 cells). The experiment in a line: DNA synthesis (3H-Thymidine) in 2 day monolayer cultures. It is filed as cell-based. The following applies: murine progenitor cell line, FIG. 10. The text has this: FIG. 10. A bar graph of the concentration dependent effects of Pentosan Polysulfate (PPS) on DNA synthesis by murine Progenitor Cells (C3H10T1/2 cells) grown in monolayer cultures for 2 days as determined by the incorporation of ^3H-Thymidine into macromolecular DNA.

Test [2] concerns Human immunoselected Stro-1+ Progenitor cells. Nature of the test: Hyaluronan biosynthesis, 3H-glucosamine incorporation, Superdex-S200 before/after Hyalase, 9 day micromass. It is filed as cell-based. From the text: FIG. 27. Chromatographic elution profiles showing the effects of polysulfated polysaccharides on the biosynthesis of Hyaluronan (HA) and by progenitor cells by measuring the incorporation of ^3H-glucosamine into HA. […] The % difference in areas under the profiles of the digested and pre-digested samples in the void volume fractions represents the amounts of ^3H-HA released into the media by the PPS concentration specified.
Human immunoselected Stro-1+ Progenitor cells (Mesoblast Ltd, Melbourne, Australia) were established in micromass cultures in 24 well plates using the method described above but seeding the progenitor cells at a density of 7×10^5 cells/well. After 24 hours in culture the media was changed and replaced with DMEM culture medium containing 10% FCS and 25 μg/ml gentamicin containing PPS (Bene-Arzneimittel, Munich, […]) which had been sterilised through a 0.22 μm filter. The cultures were incubated in 5% CO2/95% moist air at 37° C. for 8 days with media changes containing the indicated concentrations of PPS every 3 days. On the 8th day ^3H-glucosamine was added to culture medium containing the indicated concentrations of PPS to provide a solution containing 1.0 μCi/ml which was added to each well. The plates were incubated for a further 24 h. At termination of the cultures on day 9, media was collected into 5 ml capped tubes and stored at 4° C. prior to size exclusion chromatography as described below.
Two aliquots of 0.5 ml from each media sample were labelled A and B. 20 μl of 1 M acetic acid, pH 6.0 was added to all aliquots. 50 μl of reaction buffer (20 mM Na-acetate and 0.15 M NaCl, pH 6.0) was added to aliquot A and 50 μl of 5 TRU Streptomyces hyaluronidase (HYALASE) in reaction buffer was added to aliquot B. All samples were incubated at 60° C. for 3 h followed by boiling for 5 min to inactivate the added hyaluronidase. The samples were stored at −20° C. prior to gel filtration.
A Gel filtration column prepacked with Superdex-S200 was used to isolate and identify ^3H-HA and ^3H-PGs in culture media. Media samples were routinely centrifuged at high speed on a bench Microfuge for 10 min immediately before loading to the column. Samples (200 μl of each) were injected into the column through sample loop and the column was eluted with PBS buffer (0.15 M NaCl, 0.05 M Na2PO4, pH 7.2) at the flow rate of 0.2 ml/1 min. The column eluent was collected at 1.0 ml/fraction for total of 186 fractions and radioactivity was determined using a β-scintillation counter.

For a further test, the system named is human progenitor cell. Nature of the test: Viability after cryopreservation and thawing, MTT assay. It is filed as cell-based. The following applies: FIG. 3. As for the experimental part:
FIG. 3. Effects of different concentrations of Pentosan Polysulfate (PPS) on progenitor cell viability following cryopreservation in liquid nitrogen and rapidly thawing as described in FIG. 1. Cell viability was determined using the mitochondrial dehydrogenase MTT assay. Data shown=Means±SD *=p<0.05 relative to control values
Murine Progenitor cells (cell lines C3H10T1/2 or ATDC5) purchased from RIKEN Cell Bank (Tsukuba, Japan) or human immunoselected Stro-1+ progenitor cells (Mesoblast Ltd, Melbourne, Australia) were seeded at a various cell densities over the range of 1.68×10^5-1.0×10^6 cells into 2 mL screw-capped centrifuge tubes containing in DMEM+10% FBS. In separate tubes a stock solution containing 2× the required concentrations of PPS dissolved in DMEM+20% FBS and 15% DMSO were prepared. These stock solutions were added to the cell cultures such that the final concentration of PPS was half that of the stock concentration and of FBS was 10% and DMSO was […]. Over several independent experiments the final concentrations of PPS in the final solutions ranged from 0.0-100 ug/ml (see figures for details). All concentrations of PPS used were examined in triplicated. Cells and the cryopreservation solutions containing the PPS were mixed gently for 5 mins and stored in liquid nitrogen. […] 90 ul×3 from each tube were transferred to a 96-well plate and the absorbance at 540 nm determined. […]
On the technique in general: Tetrazolium dyes change colour on reduction, which living cells bring about.

The test system of the next test is Type II collagen. Nature of the test: Gene expression in 6-day pellet culture (RT-PCR). The class given is cell-based, murine. Conditions: ATDC5 cells; 6 days in pellet culture; FIG. 13. As for the experimental part: FIG. 13. Gene Expression by ATDC5 cells of Type II collagen and Sox-9 in 6-day pellet culture incubated with various concentrations of PPS in Maintenance Medium (MM).
Total RNA was isolated from Progenitor cells according to the manufacturer's instructions for the Aurum total RNA mini kit (Bio-Rad, USA). The RNA was reverse transcribed with RevertAid™ H Minus First Stand cDNA Synthesis Kit (Fermentas, USA). PCR products were transferred to an agarose gel, and visualized by ethidium bromide staining, and integrated densities calculated using Scion image analysis software, normalized to the house-keeping gene Glyceraldehydes-3-phosphate dehydrogenase (GAPDH) to permit semi-quantitative comparisons in mRNA levels. (L. Marchuk, P. Sciore, C. Reno, C. B. Frank, D. A. Hart. Postmortem stability of total RNA isolated from rabbit ligament, tendon and cartilage, Biochim Biophys Acta. 1379 (1998) 171-177. R. Boykiw, P. Sciore, C. Reno, L. Marchuk, C. B. Frank, D. A. Hart. Altered levels of extracellular matrix molecule mRNA in healing rabbit ligaments, Matrix Biol. 17 (1998) 371-378.)

As to pentosan polysulfate [PPS], the “cell division (3H-Thymidine incorporation into DNA)” value in test [1] was “Marked stimulation of cell division”. The “3H-glucosamine radioactivity incorporated into HA (media)” value in test [2] (PPS 0.1 micrograms/mL (profile not shown)) came out at 35.5%; in test [2] (PPS 1 microgram/mL, FIG. 27C), 49.6%. For the same substance, the “levels of newly synthesized 3H-HA in the culture media” value in test [2] (PPS 0.1 micrograms/mL and 1.0 micrograms/mL only) is recorded as “substantial increases”. Besides, the “radioactivity in post digestion void volume fractions of PG monomers” value in test [2] (PPS 1 microgram/mL, FIG. 27C) was 50.4%. Further, in test [2] (PPS 2.5 micrograms/mL), the “3H-glucosamine incorporated into HA (media)” value was “about 11%”. In addition, the “PPS concentration of maximum synthesis of HA” value in test [2] (micromass cultures, media) came to 1.0 micrograms/mL. In addition, the “biosynthesis of HA by cultured progenitor cells” value in test [2] (micromass, FIG. 27) was “stimulates the biosynthesis of HA”. The “3H-glucosamine radioactivity found in the HA fractions (media)” value in test [2] (the lower concentration of PPS (FIG. 27B)) amounted to 15.1%. In addition, the “cell viability after cryopreservation and thawing (MTT)” value is reported as “improved the viability of the cells” with human progenitor cell (168,000 cells, particularly at 1 and 2.5 μg/ml PPS); “not adversely affected” in the test on human progenitor cell (350,000 cells). In addition, the “type II collagen expression” value with Type II collagen is “up-regulated in a concentration dependent manner”.
